Assay results as given in patent US20230039395A1, “LSD AND […] EQUIVALENCE DETERMINATION” (Universitätsspital Basel, priority 2021, published 2023).

How the values were obtained:
[1] = Spontaneously reported adverse events after treatment; type: in vivo, human; conditions: for type and amount of adverse events, psilocybin versus LSD: in vivo; for flash back episodes: within 72 hours after administration, nine episodes in five subjects
Method: (§1) The subjects then underwent baseline measurements.
In addition to the adverse effects systematically assessed with the list of complaints, there were spontaneously reported adverse events after LSD or psilocybin administration as assessed in the evening of the treatment day or within 48 hours after treatment. These adverse after effects after psilocybin or LSD administration included headaches (four subjects after psilocybin and three after LSD), migraine attack (one subject after LSD), nosebleeds (one subject after psilocybin), low mood (two subjects after psilocybin and two subjects after LSD), nausea (two subjects after psilocybin and one subject after LSD), nightmares (one subject after psilocybin), restlessness (one subject after psilocybin and one subject after LSD), vivid dreams (one subject after LSD), insomnia (one subject after psilocybin), involuntary movement in lower extremities (one subject after LSD). Nine flash back episodes occurred in five subjects (one to 20 times within 72 hours after substance administration), five episodes occurred after LSD administration, four episodes occurred after psilocybin administration.

[2] = Endocrine effects: plasma cortisol and prolactin (PRL); type: in vivo, human; conditions: 2.5 hours after administration
Method: as §1
Endocrine effects: Plasma concentrations of cortisol, prolactin (PRL), oxytocin, and brain-derived neurotrophic factor (BDNF) were determined as described elsewhere (Holze et al., 2021; Schmid et al., 2015). Cortisol and PRL were measured before and 2.5 hours after drug administration. BDNF was measured before and three times after drug administration.
The criterion for significance was p<0.05.

[3] = Dose equivalence of LSD and psilocybin extrapolated from acute effects; type: in vivo, human; conditions: LSD 200 μg
[4] = 75 μg LSD base in saline i.v., previous studies; cited from earlier work
[5] = target: serotonin (5-HT)2A receptors (Homo sapiens, UniProt P28223); conditions: cited from earlier work
D1-3 receptors = conditions: cited from earlier work
[6] = after the 200 μg dose as two 100 μg LSD capsules (Steuer et al., 2017); cited from earlier work
[7] = four unused old LSD capsules, years after study completion; cited from earlier work
[8] = Acute adverse effects, 66-item List of Complaints; conditions: for headache, number of subjects reporting: 0-12 hours, high dose; for headache, number of subjects reporting / balance disturbed, number of subjects / dry mouth, number of subjects reporting: 28 subjects
[9] = Adjective Mood Rating Scale (AMRS) in healthy subjects
[10] = Mystical Experience Questionnaire (MEQ43 and MEQ30) in healthy subjects; conditions: LSD 200 μg; MEQ43 p=0.002, MEQ30 p=0.015
[11] = Plasma exposure of LSD and iso-LSD after LSD capsules in previous studies; conditions: similar bioavailability assumed
[12] = Subjective drug effects on visual analog scales (VAS) in healthy subjects
[13] = 5 Dimensions of Altered States of Consciousness Scale (5D-ASC) in healthy subjects
[14] = Autonomic effects (blood pressure, heart rate, body temperature, pupil) in healthy subjects; conditions: for rate pressure product: high dose of both substances
5-HT transporter (SERT) = 5-HT transporter (SERT) (Homo sapiens, UniProt P31645); conditions: cited from earlier work
[15] = evening of treatment day or within 48 hours

Sequence of serotonin (5-HT)2A receptors (P28223 whole entry): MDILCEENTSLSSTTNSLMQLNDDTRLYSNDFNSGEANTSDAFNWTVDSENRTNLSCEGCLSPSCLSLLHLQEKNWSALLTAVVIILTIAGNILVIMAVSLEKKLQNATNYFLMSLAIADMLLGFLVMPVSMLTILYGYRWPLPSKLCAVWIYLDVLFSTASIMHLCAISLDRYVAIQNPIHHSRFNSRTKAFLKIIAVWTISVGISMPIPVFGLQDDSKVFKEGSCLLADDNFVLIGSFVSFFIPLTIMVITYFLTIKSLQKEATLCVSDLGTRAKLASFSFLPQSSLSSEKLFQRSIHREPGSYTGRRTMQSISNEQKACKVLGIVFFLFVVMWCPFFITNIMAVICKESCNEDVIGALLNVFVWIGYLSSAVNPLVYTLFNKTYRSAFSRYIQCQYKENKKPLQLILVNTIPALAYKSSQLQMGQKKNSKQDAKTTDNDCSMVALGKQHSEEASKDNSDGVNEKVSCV
Sequence of 5-HT transporter (SERT) (P31645 whole entry, species assumed): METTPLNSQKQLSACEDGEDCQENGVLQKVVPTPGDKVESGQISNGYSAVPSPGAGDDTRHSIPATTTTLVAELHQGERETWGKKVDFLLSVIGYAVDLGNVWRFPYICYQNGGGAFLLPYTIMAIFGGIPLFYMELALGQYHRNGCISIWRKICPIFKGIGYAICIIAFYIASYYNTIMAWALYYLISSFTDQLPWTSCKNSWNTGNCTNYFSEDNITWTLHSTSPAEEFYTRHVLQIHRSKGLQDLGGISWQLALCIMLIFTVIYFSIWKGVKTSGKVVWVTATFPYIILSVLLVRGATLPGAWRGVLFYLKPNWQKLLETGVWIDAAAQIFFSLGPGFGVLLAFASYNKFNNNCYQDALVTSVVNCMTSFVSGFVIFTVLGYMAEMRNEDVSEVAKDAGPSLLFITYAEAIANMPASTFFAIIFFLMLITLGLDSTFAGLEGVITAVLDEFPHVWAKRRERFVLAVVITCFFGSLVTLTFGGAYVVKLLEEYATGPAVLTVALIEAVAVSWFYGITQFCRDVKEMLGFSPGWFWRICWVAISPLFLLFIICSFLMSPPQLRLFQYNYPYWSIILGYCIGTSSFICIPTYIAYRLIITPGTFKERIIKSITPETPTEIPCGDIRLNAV

Question: Which “headaches, spontaneously reported” value [1, 15] does the source give for `CCN(CC)C(=O)[C@@H]1C=C2c3cccc4[nH]cc(c34)C[C@H]2N(C)C1` [LSD, lysergic acid diethylamide] here?
Answer: three

Question: What about the “involuntary movement in lower extremities, spontaneously reported” value [1, 15] of the same compound?
Answer: one

Question: And the “low mood, spontaneously reported” value [1, 15]?
Answer: two

Question: And the “migraine attack, spontaneously reported” value [1, 15]?
Answer: one

Question: And the “nausea, spontaneously reported” value [1, 15]?
Answer: one

Question: And the “restlessness, spontaneously reported” value [1, 15]?
Answer: one

Question: What about the “vivid dreams, spontaneously reported” value [1, 15] of the same compound?
Answer: one

Question: What about the “type and amount of adverse events, psilocybin versus LSD” value [1] of the same compound?
Answer: comparable

Question: And the flash back episodes [1]?
Answer: five

Question: And the PRL plasma concentrations [2]?
Answer: significantly increased

Question: What about the cortisol plasma concentrations [2] of the same compound?
Answer: significantly increased

Question: What about the “overall strength versus the 30 mg psilocybin dose” value [3] of the same compound?
Answer: overall stronger

Question: And the “clinical response to 75 μg intravenous LSD versus oral 100 μg dose” value [4]?
Answer: not significantly different

Question: And the “binding to 5-HT2A receptors” value [5]?
Answer: bind

Question: And the “action on D1-3 receptors” value (D1-3 receptors)?
Answer: stimulates

Question: What about the “plasma AUC24” value [6] of the same compound?
Answer: 21 ng·h/mL

Question: And the “remaining amount of LSD in capsules” value [7]?
Answer: 22 ± 7 µg

Question: And the “headache, number of subjects reporting” value [8]?
Answer: 13 subjects

Question: And the “balance disturbed, number of subjects” value [8]?
Answer: 16 subjects

Question: And the “dry mouth, number of subjects reporting” value [8]?
Answer: 15 subjects

Question: What about the “frequency of acute adverse effects, LSD versus psilocybin” value ([8]; in vivo) of the same compound?
Answer: equally frequent

Question: And the “most frequent acute adverse effects” value ([8]; in vivo)?
Answer: fatigue, headache, lack of concentration, lack of energy, dullness, feeling week, loss of appetite, dry mouth, and impaired balance

Question: And the “total number of acute complaints, 100 versus 200 μg LSD” value ([8]; in vivo)?
Answer: did not differ

Question: And the “AMRS emotional excitation versus 15 mg or 30 mg psilocybin” value ([9]; LSD 100 and 200 μg)?
Answer: greater

Question: What about the “AMRS extraversion ratings versus placebo” value ([9]; all doses) of the same compound?
Answer: decrease

Question: What about the “AMRS inactivation ratings versus placebo” value ([9]; all doses) of the same compound?
Answer: significantly and similarly increased

Question: And the “AMRS introversion ratings versus placebo” value ([9]; all doses)?
Answer: increased

Question: And the AMRS self-rated anxiety ([9]; both doses of LSD (100 and 200 μg))?
Answer: slightly but significantly increased

Question: What about the “MEQ ineffability ratings versus 30 mg psilocybin” value [10] of the same compound?
Answer: significantly greater

Question: And the “AUC∞ as percent of the value expected from confirmed 96 μg LSD doses” value ([11]; 100 μg dose)?
Answer: 61%

Question: What about the “AUC∞ as percent of the value expected from confirmed 96 μg LSD doses” value ([11]; 200 μg dose) of the same compound?
Answer: 76%

Question: What about the “dose-response curve of subjective effects” value ([12]; 15-30 mg psilocybin range compared to 100-200 μg LSD range) of the same compound?
Answer: plateau effect

Question: What about the “overall effects and positive drug effects, 200 μg versus 100 μg LSD” value ([12]; LSD 100 and 200 μg oral) of the same compound?
Answer: comparable positive drug effects

Question: And the “bad drug effects, 200 μg versus 100 μg LSD” value ([12]; human, in vivo)?
Answer: more

Question: And the “ego dissolution (VAS), 200 μg versus 100 μg LSD” value ([12]; p=0.014)?
Answer: more and greater

Question: And the “anxiety (VAS), 200 μg versus 100 μg LSD” value ([12]; p=0.054)?
Answer: more and near-significantly greater

Question: What about the “alterations of the mind in the 5D-ASC scale” value ([13]; human, in vivo) of the same compound?
Answer: marked alterations of the mind

Question: And the “5D-ASC AED (anxious ego dissolution), 200 μg versus 100 μg LSD” value ([13]; p=0.02)?
Answer: greater

Question: And the “5D-ASC anxiety, 200 μg versus 100 μg LSD” value ([13]; p=0.03)?
Answer: greater

Question: And the “5D-ASC impairments of control and cognition, 200 μg versus 100 μg LSD” value ([13]; p=0.04)?
Answer: greater

Question: And the “increase in heart rate versus psilocybin 30 mg” value ([14]; LSD 200 μg, p=0.002)?
Answer: significantly more

Question: What about the rate pressure product [14] of the same compound?
Answer: similarly increased

Question: With `CCN(CC)C(=O)[C@H]1C=C2c3cccc4[nH]cc(c34)C[C@H]2N(C)C1` [iso-LSD] as the compound, how does the “plasma AUC24” value [6] read?
Answer: 9.2 ng·h/mL

Question: Which “action on the 5-HT transporter (SERT)” value (5-HT transporter (SERT)) does the source give for `CN(C)CCc1c[nH]c2cccc(O)c12` [Psilocin, psilocin] here?
Answer: inhibits

Question: For `CN(C)CCc1c[nH]c2cccc(OP(=O)(O)O)c12` [psilocybin], which “headaches, spontaneously reported” value [1, 15] is on record?
Answer: four

Question: And the “insomnia, spontaneously reported” value [1, 15]?
Answer: one

Question: And the “low mood, spontaneously reported” value [1, 15]?
Answer: two

Question: What about the “nausea, spontaneously reported” value [1, 15] of the same compound?
Answer: two

Question: And the “nightmares, spontaneously reported” value [1, 15]?
Answer: one

Question: And the “nosebleeds, spontaneously reported” value [1, 15]?
Answer: one

Question: What about the “restlessness, spontaneously reported” value [1, 15] of the same compound?
Answer: one

Question: What about the “type and amount of adverse events, psilocybin versus LSD” value [1] of the same compound?
Answer: comparable

Question: What about the flash back episodes [1] of the same compound?
Answer: four

Question: And the “headache, number of subjects reporting” value [8]?
Answer: 18 subjects

Question: What about the “balance disturbed, number of subjects” value [8] of the same compound?
Answer: 16 subjects

Question: And the “dry mouth, number of subjects reporting” value [8]?
Answer: 9 subjects

Question: What about the “frequency of acute adverse effects, LSD versus psilocybin” value ([8]; in vivo) of the same compound?
Answer: equally frequent

Question: And the “most frequent acute adverse effects” value ([8]; in vivo)?
Answer: fatigue, headache, lack of concentration, lack of energy, dullness, feeling week, loss of appetite, dry mouth, and impaired balance

Question: And the “acute adverse effects versus LSD 100 μg” value ([8]; psilocybin 15 mg, p<0.01)?
Answer: fewer

Question: And the “acute adverse effects versus psilocybin 30 mg” value ([8]; psilocybin 15 mg, p<0.1)?
Answer: trend toward fewer

Question: What about the rate pressure product [14] of the same compound?
Answer: similarly increased

Question: What about the “increase in diastolic blood pressure versus LSD 200 μg” value ([14]; psilocybin 30 mg, p<0.001) of the same compound?
Answer: more

Question: What about the “increase in systolic blood pressure versus LSD 200 μg” value ([14]; psilocybin 30 mg, p=0.04) of the same compound?
Answer: more
